Test system: L02
Assay: Hepatoprotective activity against carbon tetrachloride-induced toxicity in human HL-7702 cells assessed as increase of cell survival rate at 0.2 ug/ul pretreated for 12 hrs before carbon tetrachloride addition by MTS assay relative to control
Format: functional

Row | SMILES | Survival [%]
1 | COc1c(Cl)c2c(c(OC)c1OC)-c1c(c(Cl)c(OC)c(OC)c1OC)C[C@](C)(O)[C@@H](C)C2 | 44
2 | COc1cc2c(c(OC)c1OC)-c1c(c(Cl)c(OC)c(OC)c1OC)C[C@](C)(O)[C@@H](C)C2 | 44
3 | COc1c(Br)c2c(c(OC)c1OC)-c1c(c(Br)c(OC)c(OC)c1OC)C[C@](C)(O)[C@@H](C)C2 | 54.2
4 | COc1cc2c(c(OC)c1OC)-c1c(c(Br)c(OC)c(OC)c1OC)C[C@](C)(O)[C@@H](C)C2 | 50
5 | COc1c(I)c2c(c(OC)c1OC)-c1c(c(I)c(OC)c(OC)c1OC)C[C@](C)(O)[C@@H](C)C2 | 45
6 | COc1cc2c(c(OC)c1OC)-c1c(c(I)c(OC)c(OC)c1OC)C[C@](C)(O)[C@@H](C)C2 | 40.9
7 | COC1=C(OC)C23C(=CC1=O)CC(C)C2(C)Cc1cc(OC)c(OC)c(OC)c13 (stereo unspecified) | 34.6
8 | COc1c(Br)c2c(c(OC)c1OC)-c1c(c(OC)c(OC)c(OC)c1OC)C[C@](C)(O)[C@@H](C)C2 | 73.6
9 | COc1c(Cl)c2c(c(OC)c1OC)-c1c(c(Cl)c3c(c1OC)OCO3)C[C@H](C)[C@H](C)C2 | 51.8
10 | COc1c(Cl)c2c(c(OC)c1OC)-c1c(cc3c(c1OC)OCO3)C[C@H](C)[C@H](C)C2 | 43.4
11 | COc1c(Br)c2c(c(OC)c1OC)-c1c(c(Br)c3c(c1OC)OCO3)C[C@H](C)[C@H](C)C2 | 63.4
12 | COc1c(Br)c2c(c(OC)c1OC)-c1c(cc3c(c1OC)OCO3)C[C@H](C)[C@H](C)C2 | 49.1
13 | COc1c(I)c2c(c(OC)c1OC)-c1c(c(I)c3c(c1OC)OCO3)C[C@H](C)[C@H](C)C2 | 90
14 | COc1c(OC)c(C(C)=O)c2c(c1OC)-c1c(cc3c(c1OC)OCO3)C[C@H](C)[C@H](C)C2 | 44.4
15 | COc1cc2c(c(OC)c1OC)-c1c(cc(OC)c(OC)c1OC(C)=O)C[C@H](C)[C@H](C)C2 | 65
16 | COc1c(O)c2c(c(Cl)c1OC)C[C@H](C)[C@H](C)Cc1c(Cl)c(OC)c(OC)c(OC)c1-2 | 98.5
17 | COc1cc2c(c(OC)c1OC)-c1c(O)c(OC)c(OC)c(Cl)c1C[C@H](C)[C@H](C)C2 | 63
18 | COc1c(O)c2c(c(Br)c1OC)C[C@H](C)[C@H](C)Cc1c(Br)c(OC)c(OC)c(OC)c1-2 | 83
19 | COc1cc2c(c(OC)c1OC)-c1c(O)c(OC)c(OC)c(Br)c1C[C@H](C)[C@H](C)C2 | 82
20 | COc1c(O)c2c(c(I)c1OC)C[C@H](C)[C@H](C)Cc1c(I)c(OC)c(OC)c(OC)c1-2 | 50
21 | COC1=C(OC)C(OC(C)=O)C2=C(C[C@H](C)[C@H](C)Cc3cc(OC)c(OC)c(OC)c32)C1=O (stereo partly specified) | 52.7
22 | COC1=C(OC)C(=O)C2=C(C[C@H](C)[C@H](C)Cc3cc(OC)c(OC)c(OC)c32)C1=O | 85.5
23 | COC(=O)c1cc(OC)c2c(c1-c1c(C(=O)OC)cc(OC)c3c1OCO3)OCO2 [BIFENDATE] | 40.3
24 | COc1cc2c(c(O)c1OC)-c1c(cc(OC)c(OC)c1OC)C[C@@H](C)[C@@H](C)C2 [SCHISANHENOL] | 48.1
25 | COc1cc2c(c(OC)c1OC)-c1c(cc(OC)c(OC)c1OC)C[C@](C)(O)[C@@H](C)C2 [SCHIZANDRIN] | 43.3
26 | COc1cc2c(c(OC)c1OC)-c1c(cc3c(c1OC)OCO3)C[C@H](C)[C@H](C)C2 [WUWEIZISU B] | 42.8
